# “And” between values parts separate entries of the source, which are not always exact repeats. Identical values can stand only once.
# System: patients with MUM
# Assay: First cycle dose-limiting toxicities, phase I dose escalation
# Assay type: in vivo
# Conditions: for Maximum tolerated dose (MTD): BLRM and EWOC
# Experimental: The study protocol and amendments were approved by the Independent Ethics Committee or Institutional Review Board for each centre, and all patients provided written informed consent. The study was conducted according to the principles of the Declaration of Helsinki and performed in compliance with Good Clinical Practice. All patients were aged ≥18 years old and had biopsy-proven MUM with progressive and measurable disease. […] There was no eligibility limit to the number of prior lines of therapy, including PKC inhibitors other than LXS196.
# During dose escalation, patients received oral LXS196 either once daily (QD; 100–1000 mg) or twice daily (BID; 200–400 mg) in 28-day cycles until disease progression, intolerable toxicity or withdrawal of consent (Supplementary Fig. 1). Dosing was omitted on the second day of the first cycle (C1D2) to allow for longer post-dose sampling in order to better characterise PK. LXS196 was given on an empty stomach, at least 1 h before or 2 h after a meal. Dose escalation was guided by safety, PK data and a two-parameter Bayesian Logistic Regression Model (BLRM) employing escalation with overdose control (EWOC) criteria. The DLT period lasted 28 days after the first dose of LXS196. […] Upon determination of the MTD/RDE, the expansion part of the study was opened to further evaluate the safety, tolerability, PK and PD of LXS196 at the RDE in patients with MUM. No hypothesis testing was planned in this study, and therefore, no formal sample size calculation was needed. The sample size was selected to ensure the BLRM had adequate operating characteristics when selecting the MTD/RDE.
# Routine safety assessments, including laboratory assessments, physical examinations, vital signs and electrocardiograms (ECGs), were conducted at regular intervals throughout the study and more frequently as needed following patient assessment by the treating physician. Adverse events (AEs) were assessed continuously according to the National Cancer Institute Common Terminology Criteria for Adverse Events (NCI-CTCAE) v4.03.
smiles,measurement,setting,value
CC1(N)CCN(c2cccnc2NC(=O)c2nc(-c3ncccc3C(F)(F)F)cnc2N)CC1 [LXS196],Generalised oedema DLT,100 mg QD n=3,0 n (%)
same,Hypotension DLT,100 mg QD n=3,0 n (%)
same,Nausea DLT,100 mg QD n=3,0 n (%)
same,Neutropenia DLT,100 mg QD n=3,0 n (%)
same,Total DLT events,100 mg QD n=3,0 n (%)
same,Vomiting DLT,100 mg QD n=3,0 n (%)
same,Generalised oedema DLT,200 mg BID n=5,0 n (%)
same,Hypotension DLT,200 mg BID n=5,0 n (%)
same,Nausea DLT,200 mg BID n=5,0 n (%)
same,Neutropenia DLT,200 mg BID n=5,0 n (%)
same,Total DLT events,200 mg BID n=5,0 n (%)
same,Vomiting DLT,200 mg BID n=5,0 n (%)
same,Generalised oedema DLT,200 mg QD n=4,0 n (%)
same,Hypotension DLT,200 mg QD n=4,0 n (%)
same,Neutropenia DLT,200 mg QD n=4,0 n (%)
same,Total DLT events,200 mg QD n=4,2 (50.0) n (%)
same,Nausea DLT,"200 mg QD n=4, Grade 3",1 (25.0) (Grade 3) n (%)
same,Vomiting DLT,"200 mg QD n=4, Grade 3",1 (25.0) (Grade 3) n (%)
same,Generalised oedema DLT,300 mg BID n=6,0 n (%)
same,Hypotension DLT,300 mg BID n=6,0 n (%)
same,Nausea DLT,300 mg BID n=6,0 n (%)
same,Neutropenia DLT,300 mg BID n=6,0 n (%)
same,Total DLT events,300 mg BID n=6,0 n (%)
same,Vomiting DLT,300 mg BID n=6,0 n (%)
same,Generalised oedema DLT,300 mg QD n=15,0 n (%)
same,Hypotension DLT,300 mg QD n=15,0 n (%)
same,Nausea DLT,300 mg QD n=15,0 n (%)
same,Neutropenia DLT,300 mg QD n=15,0 n (%)
same,Total DLT events,300 mg QD n=15,0 n (%)
same,Vomiting DLT,300 mg QD n=15,0 n (%)
same,Hypotension DLT,400 mg BID n=6,1 (16.7) n (%)
same,Nausea DLT,400 mg BID n=6,0 n (%)
same,Neutropenia DLT,400 mg BID n=6,0 n (%)
same,Total DLT events,400 mg BID n=6,2 (33.4) n (%)
same,Vomiting DLT,400 mg BID n=6,0 n (%)
same,Generalised oedema DLT,"400 mg BID n=6, Grade 3",1 (16.7) (Grade 3) n (%)
same,Generalised oedema DLT,500 mg QD n=11,0 n (%)
same,Nausea DLT,500 mg QD n=11,0 n (%)
same,Total DLT events,500 mg QD n=11,3 (27.3) n (%)
same,Vomiting DLT,500 mg QD n=11,0 n (%)
same,Hypotension DLT,"500 mg QD n=11, Grade 3",2 (18.2) (Grade 3) n (%)
same,Neutropenia DLT,"500 mg QD n=11, Grade 4",1 (9.1) (Grade 4) n (%)
same,Generalised oedema DLT,800 mg QD n=1,0 n (%)
same,Nausea DLT,800 mg QD n=1,0 n (%)
same,Neutropenia DLT,800 mg QD n=1,0 n (%)
same,Total DLT events,800 mg QD n=1,1 (100) n (%)
same,Vomiting DLT,800 mg QD n=1,0 n (%)
same,Hypotension DLT,"800 mg QD n=1, Grade 4",1 (100) (Grade 4) n (%)
same,Generalised oedema DLT,1000 mg QD n=4,0 n (%)
same,Nausea DLT,1000 mg QD n=4,0 n (%)
same,Neutropenia DLT,1000 mg QD n=4,0 n (%)
same,Total DLT events,1000 mg QD n=4,2 (50.0) n (%)
same,Vomiting DLT,1000 mg QD n=4,0 n (%)
same,Hypotension DLT,"1000 mg QD n=4, Grade 2 and 4",2 (50.0) (Grade 2 and 4) n (%)
same,Generalised oedema DLT,All BID n=17,1 (5.9) n (%)
same,Hypotension DLT,All BID n=17,1 (5.9) n (%)
same,Nausea DLT,All BID n=17,0 n (%)
same,Neutropenia DLT,All BID n=17,0 n (%)
same,Total DLT events,All BID n=17,2 (11.8) n (%)
same,Vomiting DLT,All BID n=17,0 n (%)
same,Generalised oedema DLT,All QD n=38,0 n (%)
same,Hypotension DLT,All QD n=38,5 (13.2) n (%)
same,Nausea DLT,All QD n=38,1 (2.6) n (%)
same,Neutropenia DLT,All QD n=38,1 (2.6) n (%)
same,Total DLT events,All QD n=38,8 (21.0) n (%)
same,Vomiting DLT,All QD n=38,1 (2.6) n (%)
same,Generalised oedema DLT,All patients n=55,1.8 n (%) and 1 (1.8) n (%)
same,Hypotension DLT,All patients n=55,6 (10.9) n (%)
same,Nausea DLT,All patients n=55,1.8 n (%) and 1 (1.8) n (%)
same,Neutropenia DLT,All patients n=55,1.8 n (%) and 1 (1.8) n (%)
same,Total DLT events,All patients n=55,16.4 n (%)
same,Vomiting DLT,All patients n=55,1.8 n (%) and 1 (1.8) n (%)
same,Recommended dose for expansion (RDE),BID,300 mg
same,Maximum tolerated dose (MTD),BID schedule,400 mg
same,Maximum tolerated dose (MTD),QD schedule,500 mg
same,Doses at which hypotension DLT occurred,most common DLT,≥ 500 mg/day
